Here are results for two compounds from US6699506B1, “Pharmaceutical composition with extended release of Milnacipran” (Pierre Fabre Medicament, priority 1996, dated 2004).

Converted amounts (≈) assume the structure as drawn.

In one series the test system is noradrenaline. The settings on record: cited from earlier work.
The next series relates to serotonin. The conditions noted are these: cited from earlier work.
The next series deals with dopamine. The conditions noted are these: cited from earlier work.
The nature of a further series: physchem. The settings on record: water, aqueous solubility.

A word on the bioavailability: it is dose-corrected exposure relative to a reference, in per cent. A high value points to good availability. Usually half-life stands for the time in which the quantity being followed falls by half. For orientation: solubility means the dissolved amount per volume that the medium holds. Consider `CCN(CC)C(=O)C1(c2ccccc2)CC1CN` (stereo not shown) [Milnacipran], for which the “inhibition of the capture of noradrenaline” value with noradrenaline was “mixed inhibition”. Besides, the “inhibition of the capture of serotonin” value in the series on serotonin is on record as “mixed inhibition”. Further, the effect on dopamine entry in the series with dopamine is recorded as “no effect”. In the series “in vivo”, this compound gave a bioavailability above 85% and a half-life of 7 to 9 h. The compound also yielded a solubility in “physchem” of 800 mg/mL (≈ 3250 mM).
For the compound `CCN(CC)C(=O)[C@@]1(c2ccccc2)C[C@H]1CN` [dextrorotatory form], in the series “activity of the isomers”, the “activity of isomeric forms” value is “more active than the levorotatory form”.
